From patent publication US20100099614A1, “Antimicrobial Peptides and Methods of Use” (priority 2008, published 2010)
Values joined by “and” are separate entries in the source; they are usually repeats but may differ in a detail not shown here. Equal entries are not always repeated. Where two headings read alike, the source gives them in different places.

Experiments:
human red blood cells = test: Hemolytic activity (MHC50/HC50), 18 h microtiter dilution; type: cell-based; details: red cells of human, 18 h
Description: Hemoglobin release was determined spectrophotometrically at 570 nm. […] MHC50 was determined by plot the concentration-lysis format.

Gram-negative bacteria = test: Antibacterial activity (MIC), microtiter dilution; type: cell-based
Description: MICs were determined by a standard microtiter dilution method in Mueller Hinton Broth (MHB). Serial dilutions of the 10× compound were added to the microtiter plates in a volume of 10 μL followed by 90 μL of bacteria for an inoculum of 5×10^5 colony-forming units (CFU)/mL. The plates were incubated at 37° C. for 24 h, and the MICs were determined as the lowest peptide concentration that inhibited growth. […]
Alternatively; minimal inhibitory concentrations were determined using a standard microtiter dilution method in a Mueller-Hinton (MH) medium. Briefly, cells were grown overnight at 37° C. in MH broth and diluted in the same medium. Serial dilutions of the peptides were added to the microtiter plates in a volume of 100 μl followed by 10 μl of bacteria for an initial cell concentration of 1×10^5 CFU/ml. Plates were incubated at 37° C. for 24 hours and MICs determined as the lowest peptide concentration that inhibited growth.

Interleukin-6 (IL-6) = test: Cytokine assay, stimulation of peripheral blood mononuclear cells, ELISA; type: cell-based, human
Description: (§1) Isolation of peripheral blood mononuclear cells (PBMCs) from 5 healthy individuals was performed as described elsewhere (108). Briefly, venous blood was drawn into 10 ml tubes containing 0.2 mg of EDTA (Monoject's-Hertogenbosch, NL). The PBMC fraction was obtained by density centrifugation of blood using Ficoll-Paque (Pharmacia Biotech AB, Sweden). […] The PBMCs were incubated in 96-well tissue culture plates (Greiner, Alphen, NL) at a concentration of 5×10^5 cells per well in a total volume of 200 μl, in the presence or absence of a set of stimuli in different experiments. […] After 24 h of incubation, the supernatants were collected and stored at -80° C. until analysis. Interleukin-6 (IL-6) and tumor necrosis factor (TNF) were measured by ELISA according to the manufacturer's protocol ([…], CLB, Amsterdam, NL). […] Agilent Technologies) with a linear AB gradient (0.2% acetonitrile/min) at a flow rate of 2 ml/min, where mobile phase A was 0.1% aqueous TFA in water and B was 0.1% TFA in acetonitrile. The purity of peptides was verified by analytical RP-HPLC. The peptides were further characterized by electrospray mass spectrometry and amino acid analysis.

[1] = tested on: tumor necrosis factor (TNF); test: as above; type: cell-based, human
Description: as §1

[2] = Peptide hydrophobicity by RP-HPLC retention; type: physicochemical; details: pH 2, room temperature
Description: Peptide Synthesis and Purification—Syntheses of the peptides were carried out by solid-phase peptide synthesis using t-butyloxycarbonyl chemistry and MBHA (4-methylbenzhydrylamine) resin (0.97 mmol/g), followed by cleavage of the peptide from the resin as described previously (117-119). However, it is understood in the art that there are other suitable instruments and methods for automated or manual peptide synthesis that could be employed to produce the peptides described herein. Peptide purification was performed by reversed-phase high-performance liquid chromatography (RP-HPLC) on a Zorbax 300 SB-C8 column (250×9.4 mm I.D.; 6.5 μm particle size, 300 Å pore size; Agilent Technologies, Little Falls, Del.) with a linear AB gradient (0.1% acetonitrile/min) at a flow rate of 2 mL/min, where eluent A was 0.2% aqueous trifluoroacetic acid (TFA), pH 2, and eluent B was 0.2% TFA in acetonitrile, where the shallow 0.1% acetonitrile/min gradient started 12% below the acetonitrile concentration required to elute the peptide on injection of analytical sample using a gradient of 1% acetonitrile/min (113). The purity of the peptides was verified by analytical RP-HPLC as described below and further characterized by mass spectrometry and amino acid analysis. Crude and purified peptides were analyzed on an Agilent 1100 series liquid chromatograph. Runs were performed on a Zorbax 300 SB-C8 column (150×2.1 mm I.D.; 5 μm particle size, 300 Å pore size) from Agilent Technologies using a linear AB gradient (1% acetonitrile/min) and a flow rate of 0.25 mL/min, where eluent A was 0.2% aqueous TFA, pH 2, and eluent B was 0.2% TFA in acetonitrile.
Analytical RP-HPLC of Peptides—Peptides were analyzed on an Agilent 1100 series liquid chromatograph (Little Falls, Del.). Runs were performed on a Zorbax 300 SB-C8 column (150×2.1 mm I.D.; 5 μm particle size, 300 Å pore size) from Agilent Technologies using linear AB gradient (1% acetonitrile/min) and a flow rate of 0.25 ml/min, where solvent A was 0.05% aqueous TFA, pH 2 and solvent B was 0.05% TFA in acetonitrile. Temperature profiling analyses were performed in 3° C. increments, from 5° C. to 80° C.

[3] = Helical structure by circular dichroism spectroscopy; type: physicochemical; details: 222 nm
Description: The mean residue molar ellipticities of peptides were determined by circular dichroism (CD) spectroscopy, using a Jasco J-810 spectropolarimeter (Easton, Md.) at 5° C. under benign (non-denaturing) conditions (50 mM NaH2PO4/Na2HPO4/100 mM KCl, pH 7.0), hereafter referred to as benign buffer, as well as in the presence of an α-helix inducing solvent, 2,2,2-trifluoroethanol, TFE, (50 mM NaH2PO4/Na2HPO4/[…], pH 7.0 buffer/50% TFE). A 10-fold dilution of an approximately […] stock solution of the peptide analogs was loaded into a 0.1 cm quartz cell and its ellipticity scanned from 195 to 250 nm. The values of molar ellipticities of the peptide analogs at a wavelength of 222 nm were used to estimate the relative α-helicity of the peptides.

[4] = tested on: Mycobacterium tuberculosis strain H37Rv
Ascomycota fungi = details: Ascomycota fungi
[5] = tested on: Mycobacterium tuberculosis strain H37Rv; test: microbe, parasite or virus in culture
[6] = 50% trifluoroethanol (TFE), 5° C.; cited from earlier work
Peptide D1, D-(V13K) = test: RP-HPLC temperature profiling at pH 2, maximal retention time difference against control peptide C; self-association
[7] = target: the molecule itself; test: RP-HPLC temperature profiling, 5 to 80 C, pH 2 (self-association)
Description: Thus, if the self-association ability of a peptide in aqueous media is too strong (e.g., forming stable folded dimers through interaction of their non-polar faces) this could decrease the ability of the peptide to dissociate to monomer where the dimer cannot effectively pass through the capsule and cell wall to reach the membrane. The ability of the peptides in the present study to self-associate was determined by the technique of RP-HPLC temperature profiling at pH 2 (30,29,42). The reason pH 2 is used to determine self-association of cationic AMPs is that highly positively charged peptides are frequently not eluted from reversed-phase columns at pH 7 due to non-specific binding to negatively charged silanols on the column matrix. This is not a problem at pH 2 since the silanols are protonated (i.e., neutral) and non-specific electrostatic interactions are eliminated. At pH 2, the interactions between the peptide and the reversed-phase matrix involve ideal retention behavior, i.e., only hydrophobic interactions between the preferred binding domain (nonpolar face) of the amphipathic molecule and the hydrophobic surface of the column matrix are present (39). […]

[8] = target: Peptide D5, D-(V13K, A12L, A20L, A23L, V16K); test: RP-HPLC temperature profiling at pH 2, maximal retention time difference against control peptide C; self-association
[9] = peptide concentration 0.01 μg/ml
[10] = peptide concentration 100 μg/ml

Which “Hemolytic activity HC50” value (human red blood cells) does the source give for `CC[C@@H](C)[C@@H](NC(=O)[C@@H](CC(C)C)NC(=O)[C@@H](CCCCN)NC(=O)[C@@H](CC(C)C)NC(=O)[C@@H](CC(C)C)NC(=O)[C@H](NC(=O)[C@@H](Cc1c[nH]cn1)NC(=O)[C@@H](CC(C)C)NC(=O)[C@@H](CCCCN)NC(=O)[C@H](NC(=O)[C@@H](CCCCN)NC(=O)[C@@H](CCCCN)NC(=O)[C@@H](CC(C)C)NC(=O)[C@@H](CO)NC(=O)[C@@H](CCCCN)NC(=O)[C@@H](Cc1ccccc1)NC(=O)[C@H](NC(=O)[C@@H](CCCCN)NC(=O)[C@@H](CC(C)C)NC(=O)[C@@H](Cc1ccccc1)NC(=O)[C@@H](CO)NC(=O)[C@@H](CCCCN)NC(=O)[C@@H](Cc1c[nH]c2ccccc12)NC(=O)[C@@H](CCCCN)NC(C)=O)[C@H](C)O)[C@H](C)O)[C@H](C)O)C(=O)N[C@H](CO)C(=O)N[C@H](CO)C(N)=O` [D5] here?
Its value is 14.9 µM.

And the “increase in antibacterial activity compared to D4” value (Gram-negative bacteria; gram-negative bacteria)?
The value was 2 fold.

What about the “Fold improvement in antimicrobial activity (geometric mean data) compared to that of D4, Gram-negative bacteria” value (Gram-negative bacteria; relative to D4) of the same molecule?
Its value is 2.2 fold.

And the “MIC GM (geometric mean of the MIC values), Gram-negative bacteria” value (Gram-negative bacteria; six Gram-negative strains, 128 μg/mL used where no activity at 64 μg/mL)?
Its value is 10.1 µg/mL.

And the “IL-6 Exp 1” value (Interleukin-6 (IL-6); [9])?
The value was <3 pg/mL.

And the “IL-6 Exp 2” value (Interleukin-6 (IL-6); [9])?
The value was <3 pg/mL.

What about the “IL-6 Exp 1” value (Interleukin-6 (IL-6); peptide concentration 1 μg/ml) of the same molecule?
The value was <3 pg/mL.

What about the “IL-6 Exp 1” value (Interleukin-6 (IL-6); [10]) of the same molecule?
The value was <3 pg/mL.

What about the “IL-6 Exp 2” value (Interleukin-6 (IL-6); [10]) of the same molecule?
Its value is <3 pg/mL.

What about the “TNF Exp 1” value [1, 9] of the same molecule?
The value was <0.015 ng/mL.

What about the “TNF Exp 2” value [1, 9] of the same molecule?
The value was <0.015 ng/mL.

And the “TNF Exp 1” value ([1]; peptide concentration 1 μg/ml)?
Its value is <0.015 ng/mL.

What about the “TNF Exp 2” value ([1]; peptide concentration 1 μg/ml) of the same molecule?
The value was <0.015 ng/mL.

And the “Hydrophobicity tR (retention time in RP-HPLC)” value [2]?
Its value is 80.4 min.

What about the “50% TFE [θ]222 (mean residue molar ellipticity)” value ([3]; benign buffer containing 50% trifluoroethanol) of the same molecule?
Its value is 35,500 deg cm^2/dmol.

And the “Benign [θ]222 (mean residue molar ellipticity)” value ([3]; benign conditions (100 mM KCl, 50 mM NaH2PO4/Na2HPO4, pH 7.0))?
The value was 3,700 deg cm^2/dmol.

And the “reduction in viability (CFU/ml)” value ([4]; 100 μg/ml (31.7 μM), 7 days incubation vs day 0)?
The value was “about 100 fold”.

What about the “Anti-tuberculosis activity to H37Rv strain Fold (compared to D4)” value ([4]; further experiments, relative to D4) of the same molecule?
The value was 4.9 fold.

What about the “MIC GM (geometric mean of the MIC values), Gram-positive bacteria” value (Gram-positive bacteria; 24 h) of the same molecule?
Its value is 9.0 µg/mL.

And the “increase in antibacterial activity compared to D4” value (Gram-positive bacteria; gram-positive bacteria)?
The value was 2 fold.

And the “Fold improvement in antimicrobial activity (geometric mean data) compared to that of D4, Gram-positive bacteria” value (Gram-positive bacteria; relative to D4)?
The value was 1.8 fold.

And the “increase in antifungal activity relative to D4” value (Zygomycota fungi; Zygomycota fungi)?
Its value is 16 fold.

What about the “Fold improvement in antifungal activity (geometric mean data) compared to that of D4, Zygomycota fungi” value (Zygomycota fungi; relative to D4) of the same molecule?
The value was 16.0 fold.

And the “antifungal activity relative to D4” value (Ascomycota fungi)?
The value was “maintained the same level”.

With `CO[C@H]1/C=C/O[C@@]2(C)Oc3c(C)c(O)c4c(O)c(c(/C=N/N5CCN(C)CC5)c(O)c4c3C2=O)NC(=O)/C(C)=C\C=C\[C@H](C)[C@H](O)[C@@H](C)[C@@H](O)[C@@H](C)[C@H](OC(C)=O)[C@@H]1C` [rifampin] as the molecule, how does the MIC ([5]; 168 h, read-out: Anti-tuberculosis activity MIC) read?
The MIC was 0.033 µM and 0.027 µg/mL.

What about the MIC ([5]; read-out: Anti-tuberculosis activity to H37Rv strain MIC) of the same molecule?
Its MIC is 0.033 µM and 0.027 µg/mL.

With “Ac-ELEKGGLEGEKGGKELEK-amide (Ac-ELEKGGLEGEKGGKELEK-NH2) [peptide C]” as the molecule, how does the “[θ]222” value [6] read?
Its value is −3,950.

Which PA (dimerization / self-association parameter) (Peptide D1, D-(V13K)) does the source give for KWKSFLKTFKSAKKTVLHTALKAISS (all residues D-amino acids; N-terminal Nα-acetyl; C-terminal amide) [Peptide D1, D-(V13K)] here?
Its PA (dimerization / self-association parameter) is 2.78.

Does Ac-ELEKGGLEGEKGGKELEK-NH2 [Control peptide C (random coil peptide)] bind [7]?
Result: no binding

For KWKSFLKTFKSLKKTKLHTLLKLISS (all residues D-amino acids; N-terminal Nα-acetyl; C-terminal amide) [Peptide D5, D-(V13K, A12L, A20L, A23L, V16K)], which PA (dimerization / self-association parameter) [8] is on record?
Its PA (dimerization / self-association parameter) is 4.35.
